System: SEM cells
Test: cell viability relative to DMSO control; higher = less cytotoxic
Settings: 48 h
How it was run: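 NOMO1 or SEM (500 cells/well) or P12-Ichikawa (1000 cells/well) leukemia cells were adapted for at least four passages in each medium. They were seeded in 1536-well plates (5 μl) and pin-dosed with library compounds in DMSO over an 11-point threefold series, 47 μM to 0.79 nM. CellTiter-Glo One luminescence was read after 48 h at 37°C. Viability is the per-plate percentage relative to DMSO wells, with cell-free wells as background.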

[1] = HPLM + 10% dialyzed FBS, 0.000781 µM
[2] = HPLM + 10% dialyzed FBS, 0.00234 µM
[3] = HPLM + 10% dialyzed FBS, 0.00702 µM
[4] = HPLM + 10% dialyzed FBS, 0.0211 µM
[5] = HPLM + 10% dialyzed FBS, 0.0632 µM
[6] = HPLM + 10% dialyzed FBS, 0.19 µM
[7] = HPLM + 10% dialyzed FBS, 0.569 µM
[8] = HPLM + 10% dialyzed FBS, 1.71 µM
[9] = HPLM + 10% dialyzed FBS, 5.12 µM
[10] = HPLM + 10% dialyzed FBS, 15.4 µM
[11] = HPLM + 10% dialyzed FBS, 46.1 µM
[12] = RPMI 5 mM glucose + 10% FBS, 0.000781 µM
[13] = RPMI 5 mM glucose + 10% FBS, 0.00234 µM
[14] = RPMI 5 mM glucose + 10% FBS, 0.00702 µM
[15] = RPMI 5 mM glucose + 10% FBS, 0.0211 µM
[16] = RPMI 5 mM glucose + 10% FBS, 0.0632 µM
[17] = RPMI 5 mM glucose + 10% FBS, 0.19 µM
[18] = RPMI 5 mM glucose + 10% FBS, 0.569 µM
[19] = RPMI 5 mM glucose + 10% FBS, 1.71 µM
[20] = RPMI 5 mM glucose + 10% FBS, 5.12 µM
[21] = RPMI 5 mM glucose + 10% FBS, 15.4 µM
[22] = RPMI 5 mM glucose + 10% FBS, 46.1 µM
[23] = RPMI 5 mM glucose + 10% dialyzed FBS, 0.000781 µM
[24] = RPMI 5 mM glucose + 10% dialyzed FBS, 0.00234 µM
[25] = RPMI 5 mM glucose + 10% dialyzed FBS, 0.00702 µM
[26] = RPMI 5 mM glucose + 10% dialyzed FBS, 0.0211 µM
[27] = RPMI 5 mM glucose + 10% dialyzed FBS, 0.0632 µM
[28] = RPMI 5 mM glucose + 10% dialyzed FBS, 0.19 µM
[29] = RPMI 5 mM glucose + 10% dialyzed FBS, 0.569 µM
[30] = RPMI 5 mM glucose + 10% dialyzed FBS, 1.71 µM
[31] = RPMI 5 mM glucose + 10% dialyzed FBS, 5.12 µM
[32] = RPMI 5 mM glucose + 10% dialyzed FBS, 15.4 µM
[33] = RPMI 5 mM glucose + 10% dialyzed FBS, 46.1 µM

Compound	cell viability [1] [%]	cell viability [2] [%]	cell viability [3] [%]	cell viability [4] [%]	cell viability [5] [%]	cell viability [6] [%]	cell viability [7] [%]	cell viability [8] [%]	cell viability [9] [%]	cell viability [10] [%]	cell viability [11] [%]	cell viability [12] [%]	cell viability [13] [%]	cell viability [14] [%]	cell viability [15] [%]	cell viability [16] [%]	cell viability [17] [%]	cell viability [18] [%]	cell viability [19] [%]	cell viability [20] [%]	cell viability [21] [%]	cell viability [22] [%]	cell viability [23] [%]	cell viability [24] [%]	cell viability [25] [%]	cell viability [26] [%]	cell viability [27] [%]	cell viability [28] [%]	cell viability [29] [%]	cell viability [30] [%]	cell viability [31] [%]	cell viability [32] [%]	cell viability [33] [%]
Cc1cn2cc(C(=O)N(C)CCO)cc(N[C@@H]3CCOc4cccc(C)c43)c2n1	90.6	107	106	101	105	107	113	114	109	113	104	84.3	88.8	75	87.1	80.7	82.9	95.8	81.1	87.2	67.6	81.5	88.9	93.7	90	110	95.3	113	94.1	106	108	95.6	94.9
CN1C(=O)/C(=C(NC2=CC=C(I)C=C2F)\C3=C1\N=C/N(C[C@@H](O)CO)C3=O)F	77.3	76.4	92.5	90.9	89.6	79.6	70.6	59.6	65.6	18.6	51.3	79.2	98.6	107	91.8	74.6	73.2	53.9	60.2	68.5	12.8	30.6	77.5	71.3	90.8	93.2	69.6	64.2	54.8	54.8	53	14.2	28
CN1C(=O)c2sccc2N(C)c2nc(Nc3ccc([S+](N)(=O)[O-])cc3)ncc21	94.1	93.2	103	102	89.2	99.6	88.7	67.8	21.9	9.56	3.55	–	–	–	–	–	–	–	–	–	–	–	112	101	106	105	95.6	91.4	93.7	63.6	14.8	8.42	4.39
COc1cc(C(=O)NC2CCN(C)CC2)ccc1Nc1ncc2c(n1)N(C1CCCC1)CCC(=O)N2C(C)C	81.4	95.1	119	104	105	112	6.04	104	94.8	59.1	13.5	95.4	106	119	130	119	120	6.08	98.1	96.5	54.2	55.1	83.4	109	117	120	112	111	5.18	102	96.5	53.8	60.8
Cc1nc(-c2ccc(OCC(C)C)c(C#N)c2)sc1C(=O)O	110	110	101	120	115	104	122	108	106	110	113	125	112	116	104	105	104	121	105	105	122	124	107	132	121	131	127	111	106	111	126	132	138
COc1ccc(F)c(F)c1C(=O)c1cnc(NC2CCN([S+](C)(=O)[O-])CC2)nc1N	94.9	103	109	113	109	113	64.6	79	41.6	4.32	1.78	115	130	121	130	123	135	80.4	83.1	43.4	3.24	1.43	101	97.7	111	98.2	99.3	114	77.4	91.1	54.1	3.36	1.73
NC(=O)c1cnccn1	104	116	117	106	120	120	123	125	119	122	118	108	112	133	105	116	129	127	121	119	120	119	–	–	–	–	–	–	–	–	–	–	–
OC[C@H]1O[C@H](C[C@@H]1O)N2/C=C(C(=O)NC2=O)/C(F)(F)F	77.4	95.7	90.9	89.9	92.3	88.7	72.5	50.2	26.2	20.5	11.8	101	104	116	101	109	123	111	103	79.5	30.4	15.5	100	124	111	115	98.3	117	93.9	66.8	22.6	15.5	10.3
